From paper PMC7646182, “Design and biological evaluation of novel BF-30 analogs for the treatment of malignant melanoma” (Journal of Cancer, 2020)

Test system: B16F10 melanoma
Experiment: Chronic study in B16F10-bearing mouse model
Type: in vivo
Conditions: B16F10-bearing C57BL/6J mice, 4-week treatment; LBF-14 0.3 and 0.9 mg/kg, cisplatinum 0.1 mg/kg, n=10
Method: The B16F10 cells (0.1 ml, 5×10^6 cells, cell viability >99%) were subcutaneously transplanted into the C57BL/6J mice. In the next 15 days, the length (L), width (W) and height (H) of tumours were measured with a caliper to calculate tumour volume using the formula: V = π/6×L×W×H. When the tumours grew to 150-350 mm^3, the melanoma model mice were randomly divided into five groups (n=10) and received saline, native BF-30 at 0.9 mg/kg, LBF-14 at […] doses of 0.3 and 0.9 mg/kg, and cisplatinum at the dose of 0.1 mg/kg, respectively. All the samples including the saline and different doses of LBF-14 were administered twice weekly by intra-tumour injection (50 μl) for 4 successive weeks. All melanoma model mice were weighted and sacrificed at the end of the experimental period (day 29). The anti-tumour efficacies of LBF-14 at both two doses were presented as inhibitory rates (%) which were calculated as [(A-B)/A]×100% (average tumour weight of (A) saline treated group and (B) LBF-14 treated groups, respectively). In addition, the tumours from the B16F10-bearing mice were separated and then performed H&E staining according to the standard operating procedures.

## N.N.[Cl][Pt][Cl] [cisplatinum]
  effect on body weight of model mice: significant decrease in body weight
